Patent US9382258B2, “Agents for treating pain and uses thereof” (AbbVie Inc., priority 2012, dated 2016)

Molecular target: T1, human Cav2.2 (Homo sapiens, UniProt Q00975)
T1 construct: cells endogenously expressing human Cav2.2; endogenous in cells; host or cells: IMR32 cells
Test: Calcium flux (FLIPR, Calcium 4 dye) in IMR32 cells endogenously expressing human Cav2.2
Format: cell-based
Details: 60 minute pre-incubation, 2 μM nifedipine to block L-type channels, depolarized with 80 mM KCl, 5 mM CaCl2, average of n≥2 runs unless marked *
Protocol: Compounds were tested for effect on calcium flux in cells endogenously expressing human Cav2.2. Specifically, IMR32 cells endogenously expressing human Cav2.2 were assayed for Ca^2+ influx using a no-wash calcium indicator dye (Calcium 4 dye: Molecular Probes) and FLIPR technology (Lubin, M L; et al. Assay and Drug Development Technologies, 2006, 4(6), 689-694). The IMR32 cells were maintained in MEM media containing 10% (v/v) FBS, 1% (v/v) antibiotic/antimitotic, 1% (v/v) sodium pyruvate and 1% (v/v) MEM NEAA. Following dissociation in 0.05% (v/v) trypsin/EDTA, cells were seeded into black 1×96-well plates (Corning Cellbind) at a density of 1−1.2×10^5 cells/well and incubated in the maintenance media above for 48 hours at 37° C. Immediately prior to performing the assay the media was removed and cells were loaded for 1.5 hours with 1× Calcium 4 dye prepared in HBSS (137 mM NaCl, 5.4 mM KCl, 0.25 mM Na2HPO4, 0.44 mM KH2PO4, 1.3 mM CaCl2, 1 mM MgSO4, 4.2 mM NaHCO3) containing HEPES pH 7.4 at room temperature. After dye loading and a subsequent 60 minute pre-incubation with compounds (full log dilutions from 10 μM to 0.1 nM) in the presence of 1.3 mM CaCl2 and 2 μM nifedipine to block endogenous L-type channels, the external Ca^2+ concentration was increased to 5 mM CaCl2 and the cells concomitantly depolarized with 80 mM KCl to assay channel activity.
To determine the IC50 values, the percent inhibition of the compound at each concentration was determined relative to the activity in the absence of inhibitor, and data was fitted using non-linear regression sigmoidal dose response curve analysis with GraphPad Prism®. Unless otherwise indicated (*), the reported values are average values from at least two runs (i.e., n≧2).

T1 sequence (Q00975 whole entry): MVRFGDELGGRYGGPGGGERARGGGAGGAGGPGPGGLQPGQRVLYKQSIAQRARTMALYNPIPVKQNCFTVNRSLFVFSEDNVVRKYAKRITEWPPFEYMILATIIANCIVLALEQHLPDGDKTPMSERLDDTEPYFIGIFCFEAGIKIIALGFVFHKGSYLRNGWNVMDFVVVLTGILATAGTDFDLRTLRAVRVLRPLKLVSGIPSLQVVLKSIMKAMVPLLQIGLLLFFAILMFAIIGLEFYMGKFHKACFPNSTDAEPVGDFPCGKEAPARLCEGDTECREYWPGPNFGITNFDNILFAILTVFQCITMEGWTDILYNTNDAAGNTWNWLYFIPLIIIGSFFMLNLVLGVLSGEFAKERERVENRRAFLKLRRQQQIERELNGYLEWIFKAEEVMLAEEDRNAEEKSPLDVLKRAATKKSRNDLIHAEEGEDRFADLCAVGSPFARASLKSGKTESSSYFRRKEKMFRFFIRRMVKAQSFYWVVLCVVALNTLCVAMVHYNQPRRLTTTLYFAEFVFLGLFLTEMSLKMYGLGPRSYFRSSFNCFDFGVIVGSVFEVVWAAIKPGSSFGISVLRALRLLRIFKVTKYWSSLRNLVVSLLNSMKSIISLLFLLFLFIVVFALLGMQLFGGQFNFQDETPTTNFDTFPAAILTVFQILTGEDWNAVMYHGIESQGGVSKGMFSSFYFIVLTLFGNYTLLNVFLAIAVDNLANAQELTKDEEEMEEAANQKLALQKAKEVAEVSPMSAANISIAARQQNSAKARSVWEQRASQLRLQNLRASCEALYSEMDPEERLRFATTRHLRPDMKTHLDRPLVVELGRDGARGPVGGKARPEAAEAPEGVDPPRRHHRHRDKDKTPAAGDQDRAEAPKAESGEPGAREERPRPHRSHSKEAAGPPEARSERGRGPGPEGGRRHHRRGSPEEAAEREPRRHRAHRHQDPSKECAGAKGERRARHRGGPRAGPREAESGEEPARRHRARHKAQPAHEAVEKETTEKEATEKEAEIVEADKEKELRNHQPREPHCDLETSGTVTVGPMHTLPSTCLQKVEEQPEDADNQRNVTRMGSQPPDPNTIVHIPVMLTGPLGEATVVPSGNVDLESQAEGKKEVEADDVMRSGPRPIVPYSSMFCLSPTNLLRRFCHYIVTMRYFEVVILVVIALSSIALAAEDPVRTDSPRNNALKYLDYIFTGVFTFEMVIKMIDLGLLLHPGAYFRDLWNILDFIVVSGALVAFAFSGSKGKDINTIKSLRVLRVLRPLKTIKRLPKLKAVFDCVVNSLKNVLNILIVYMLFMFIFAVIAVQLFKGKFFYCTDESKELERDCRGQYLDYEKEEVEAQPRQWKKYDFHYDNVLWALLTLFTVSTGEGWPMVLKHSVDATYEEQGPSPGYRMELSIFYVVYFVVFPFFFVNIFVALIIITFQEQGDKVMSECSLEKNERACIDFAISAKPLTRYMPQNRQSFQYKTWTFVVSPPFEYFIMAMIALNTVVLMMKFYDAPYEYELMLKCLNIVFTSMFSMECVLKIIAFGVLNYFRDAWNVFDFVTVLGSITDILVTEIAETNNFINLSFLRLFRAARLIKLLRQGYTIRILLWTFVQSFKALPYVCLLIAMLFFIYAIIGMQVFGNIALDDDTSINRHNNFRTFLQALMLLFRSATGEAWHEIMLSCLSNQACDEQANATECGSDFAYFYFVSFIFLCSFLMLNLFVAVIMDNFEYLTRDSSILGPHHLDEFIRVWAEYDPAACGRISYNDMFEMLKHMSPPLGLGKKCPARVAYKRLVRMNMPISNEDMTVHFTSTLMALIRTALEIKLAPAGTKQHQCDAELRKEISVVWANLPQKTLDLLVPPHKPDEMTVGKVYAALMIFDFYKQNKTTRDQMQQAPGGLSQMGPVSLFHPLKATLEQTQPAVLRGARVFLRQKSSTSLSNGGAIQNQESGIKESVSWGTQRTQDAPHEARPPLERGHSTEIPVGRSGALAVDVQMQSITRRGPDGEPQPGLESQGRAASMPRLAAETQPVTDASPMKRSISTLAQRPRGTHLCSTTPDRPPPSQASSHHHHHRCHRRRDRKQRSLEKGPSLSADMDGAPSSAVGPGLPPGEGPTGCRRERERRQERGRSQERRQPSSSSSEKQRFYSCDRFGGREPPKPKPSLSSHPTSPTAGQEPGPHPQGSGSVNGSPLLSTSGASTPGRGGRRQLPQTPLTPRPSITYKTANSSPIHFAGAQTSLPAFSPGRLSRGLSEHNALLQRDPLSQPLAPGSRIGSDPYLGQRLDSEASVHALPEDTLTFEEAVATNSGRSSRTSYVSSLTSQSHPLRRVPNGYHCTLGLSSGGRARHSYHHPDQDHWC
T1 sequence (P54284 whole entry partner): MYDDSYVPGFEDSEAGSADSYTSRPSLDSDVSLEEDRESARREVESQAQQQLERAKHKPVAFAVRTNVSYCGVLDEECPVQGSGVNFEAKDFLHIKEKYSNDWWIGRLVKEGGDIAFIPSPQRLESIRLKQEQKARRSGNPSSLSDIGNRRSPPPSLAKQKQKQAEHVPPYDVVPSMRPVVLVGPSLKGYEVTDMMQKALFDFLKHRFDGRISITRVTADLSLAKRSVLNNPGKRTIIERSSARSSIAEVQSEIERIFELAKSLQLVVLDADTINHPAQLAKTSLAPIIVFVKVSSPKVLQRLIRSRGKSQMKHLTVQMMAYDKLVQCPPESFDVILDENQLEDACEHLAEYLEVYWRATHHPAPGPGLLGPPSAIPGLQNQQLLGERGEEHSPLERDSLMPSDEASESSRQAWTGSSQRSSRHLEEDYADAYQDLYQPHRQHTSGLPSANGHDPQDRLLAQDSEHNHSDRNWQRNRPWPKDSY
T1 sequence (P54289 25-956 partner limits assumed): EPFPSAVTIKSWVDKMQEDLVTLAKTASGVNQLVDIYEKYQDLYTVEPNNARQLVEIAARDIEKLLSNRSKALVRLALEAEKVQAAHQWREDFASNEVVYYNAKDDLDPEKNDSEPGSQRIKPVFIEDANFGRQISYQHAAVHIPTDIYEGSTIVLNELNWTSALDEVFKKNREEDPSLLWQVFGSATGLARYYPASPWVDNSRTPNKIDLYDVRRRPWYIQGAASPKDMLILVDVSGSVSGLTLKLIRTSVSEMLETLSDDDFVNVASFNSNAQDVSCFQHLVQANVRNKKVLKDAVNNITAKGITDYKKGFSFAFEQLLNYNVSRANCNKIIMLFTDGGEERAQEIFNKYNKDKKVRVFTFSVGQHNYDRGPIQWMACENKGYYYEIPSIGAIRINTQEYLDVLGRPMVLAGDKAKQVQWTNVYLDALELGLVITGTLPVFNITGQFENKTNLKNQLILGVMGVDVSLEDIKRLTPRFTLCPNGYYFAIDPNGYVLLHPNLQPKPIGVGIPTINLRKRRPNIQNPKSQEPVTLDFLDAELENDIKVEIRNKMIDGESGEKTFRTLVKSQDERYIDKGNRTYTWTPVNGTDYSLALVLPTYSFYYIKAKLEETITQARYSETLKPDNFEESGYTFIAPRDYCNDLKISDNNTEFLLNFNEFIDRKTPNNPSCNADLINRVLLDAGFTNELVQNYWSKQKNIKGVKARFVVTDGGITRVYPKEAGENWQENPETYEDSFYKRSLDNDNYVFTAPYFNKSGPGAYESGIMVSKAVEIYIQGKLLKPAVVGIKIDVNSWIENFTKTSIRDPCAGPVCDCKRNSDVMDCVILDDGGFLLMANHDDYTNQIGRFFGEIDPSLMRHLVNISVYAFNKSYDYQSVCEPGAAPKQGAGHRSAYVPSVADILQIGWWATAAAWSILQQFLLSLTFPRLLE
T1 sequence (P54289 957-1103 partner limits assumed): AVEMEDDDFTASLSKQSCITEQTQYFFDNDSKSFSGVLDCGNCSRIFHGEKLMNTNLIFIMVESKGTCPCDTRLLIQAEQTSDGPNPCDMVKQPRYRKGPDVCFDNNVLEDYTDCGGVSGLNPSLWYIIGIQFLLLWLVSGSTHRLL

Row | SMILES | IC50 [nM]
1 | O=C1CCN(Cc2ccc(OC(F)(F)F)cc2)C[C@H]2C[C@@H](Oc3cnc(C4CC4)cn3)CN12 [Example 56, (8R,9aR)-8-[(5-cyclopropylpyrazin-2-yl)oxy]-2-[4-(trifluoromethoxy)benzyl]octahydro-5H-pyrrolo[1,2-a][1,4]diazepin-5-one] | 2500
2 | O=C1[C@@H]2C[C@@H](Oc3cnc(C4CC4)cn3)CN2CCCN1Cc1ccc(C(F)(F)F)c(F)c1 [Example 25, (8R,9aS)-8-[(5-cyclopropylpyrazin-2-yl)oxy]-2-[3-fluoro-4-(trifluoromethyl)benzyl]octahydro-1H-pyrrolo[1,2-a][1,4]diazepin-1-one] | 1190
3 | O=C(c1cccc(OC(F)(F)F)c1)N1CCCN2C[C@H](Oc3cnc(C4CC4)cn3)C[C@H]2C1 [Example 9, [(8R,9aS)-8-[(5-cyclopropylpyrazin-2-yl)oxy]hexahydro-1H-pyrrolo[1,2-a][1,4]diazepin-2(3H)-yl][3-(trifluoromethoxy)phenyl]methanone] | 1350
4 | O=C(c1cccc(C(F)(F)F)c1)N1CCC(=O)N2C[C@H](Oc3cnc(C4CC4)cn3)C[C@@H]2C1 [Example 57, (8R,9aR)-8-[(5-cyclopropylpyrazin-2-yl)oxy]-2-[3-(trifluoromethyl)benzoyl]octahydro-5H-pyrrolo[1,2-a][1,4]diazepin-5-one] | 11200
5 | FC(F)(F)c1cccc(N2CCCN3C[C@H](Oc4cnc(C5CC5)cn4)C[C@H]3C2)n1 [Example 20, (8R,9aS)-8-[(5-cyclopropylpyrazin-2-yl)oxy]-2-[6-(trifluoromethyl)pyridin-2-yl]octahydro-1H-pyrrolo[1,2-a][1,4]diazepane] | 750
6 | O=C(c1ccc(C(F)(F)F)c(F)c1)N1CCC(=O)N2C[C@H](Oc3cnc(C4CC4)cn3)C[C@H]2C1 [Example 35, (8R,9aS)-8-[(5-cyclopropylpyrazin-2-yl)oxy]-2-[3-fluoro-4-(trifluoromethyl)benzoyl]octahydro-5H-pyrrolo[1,2-a][1,4]diazepin-5-one] | 1030
7 | O=C1[C@@H]2C[C@@H](Oc3cnc(C4CC4)cn3)CN2CCCN1c1cccc(C(F)(F)F)c1 [Example 27, (8R,9aS)-8-[(5-cyclopropylpyrazin-2-yl)oxy]-2-[3-(trifluoromethyl)phenyl]octahydro-1H-pyrrolo[1,2-a][1,4]diazepin-1-one] | 10000
8 | O=C(c1cccc(C(F)(F)F)n1)N1CCCN2C[C@H](Oc3cnc(C4CC4)cn3)C[C@H]2C1 [Example 12, [(8R,9aS)-8-[(5-cyclopropylpyrazin-2-yl)oxy]hexahydro-1H-pyrrolo[1,2-a][1,4]diazepin-2(3H)-yl][6-(trifluoromethyl)pyridin-2-yl]methanone] | 6220
9 | O=C1CCN(Cc2ccc(OC(F)(F)F)cc2)C[C@H]2C[C@H](Oc3cnc(C4CC4)cn3)CN12 [Example 62, (8S,9aR)-8-[(5-cyclopropylpyrazin-2-yl)oxy]-2-[4-(trifluoromethoxy)benzyl]octahydro-5H-pyrrolo[1,2-a][1,4]diazepin-5-one] | 3230
10 | O=C(c1ccc(F)c(Cl)c1)N1CCCN2C[C@H](Oc3cnc(C4CC4)cn3)C[C@H]2C1 [Example 16, (3-chloro-4-fluorophenyl)[(8R,9aS)-8-[(5-cyclopropylpyrazin-2-yl)oxy]hexahydro-1H-pyrrolo[1,2-a][1,4]diazepin-2(3H)-yl]methanone] | 2300
11 | O=C(c1ccc(F)c(C(F)(F)F)c1)N1CCC(=O)N2C[C@H](Oc3cnc(C4CC4)cn3)C[C@H]2C1 [Example 36, (8R,9aS)-8-[(5-cyclopropylpyrazin-2-yl)oxy]-2-[4-fluoro-3-(trifluoromethyl)benzoyl]octahydro-5H-pyrrolo[1,2-a][1,4]diazepin-5-one] | 1780
12 | O=C1CCN(c2ccc(C(F)(F)F)cn2)C[C@@H]2C[C@H](Oc3cnc(C4CC4)cn3)CN12 [Example 30, (8S,9aS)-8-[(5-cyclopropylpyrazin-2-yl)oxy]-2-[5-(trifluoromethyl)pyridin-2-yl]octahydro-5H-pyrrolo[1,2-a][1,4]diazepin-5-one] | 6340
13 | O=C(c1ccc(C(F)(F)F)cc1F)N1CCCN2C[C@H](Oc3cnc(C4CC4)cn3)C[C@H]2C1 [Example 18, [(8R,9aS)-8-[(5-cyclopropylpyrazin-2-yl)oxy]hexahydro-1H-pyrrolo[1,2-a][1,4]diazepin-2(3H)-yl][2-fluoro-4-(trifluoromethyl)phenyl]methanone] | 1190
14 | O=C(c1ccc(C(F)(F)F)c(F)c1)N1CCCN2C[C@H](Oc3cnc(C4CC4)cn3)C[C@H]2C1 [Example 15, [(8R,9aS)-8-[(5-cyclopropylpyrazin-2-yl)oxy]hexahydro-1H-pyrrolo[1,2-a][1,4]diazepin-2(3H)-yl][3-fluoro-4-(trifluoromethyl)phenyl]methanone] | 1330
15 | O=C(Cc1cccc(C(F)(F)F)c1)N1CCC(=O)N2C[C@H](Oc3cnc(C4CC4)cn3)C[C@H]2C1 [Example 39] | 2080
16 | O=C1[C@@H]2C[C@@H](Oc3cnc(C4CC4)cn3)CN2CCCN1Cc1ccc(F)c(C(F)(F)F)c1 [Example 26, (8R,9aS)-8-[(5-cyclopropylpyrazin-2-yl)oxy]-2-[4-fluoro-3-(trifluoromethyl)benzyl]octahydro-1H-pyrrolo[1,2-a][1,4]diazepin-1-one] | 1100

Now from value to molecule:

Row | IC50 [nM] | SMILES
17 | 1720 | O=C1[C@@H]2C[C@@H](Oc3cnc(C4CC4)cn3)CN2CCCN1Cc1cccc(C(F)(F)F)c1 [Example 22, (8R,9aS)-8-[(5-cyclopropylpyrazin-2-yl)oxy]-2-[3-(trifluoromethyl)benzyl]octahydro-1H-pyrrolo[1,2-a][1,4]diazepin-1-one]
18 | 2200 | O=C1CCN(S(=O)(=O)c2ccc(C(F)(F)F)cc2)C[C@H]2C[C@H](Oc3cnc(C4CC4)cn3)CN12 [Example 64, (8S,9aR)-8-[(5-cyclopropylpyrazin-2-yl)oxy]-2-{[4-(trifluoromethyl)phenyl]sulfonyl}octahydro-5H-pyrrolo[1,2-a][1,4]diazepin-5-one]
19 | 4020 | O=C1CCN(S(=O)(=O)c2cccc(C(F)(F)F)c2)C[C@@H]2C[C@@H](Oc3ccc(C(F)(F)F)nc3)CN12 [Example 53, (8R,9aS)-2-{[3-(trifluoromethyl)phenyl]sulfonyl}-8-{[6-(trifluoromethyl)pyridin-3-yl]oxy}octahydro-5H-pyrrolo[1,2-a][1,4]diazepin-5-one]
20 | 880 | O=C1[C@H](Oc2ccc(C(F)(F)F)cn2)C[C@H]2CN(S(=O)(=O)c3cccc(C(F)(F)F)c3)CCCN12 [Example 4, (8R,9aS)-2-{[3-(trifluoromethyl)phenyl]sulfonyl}-8-{[5-(trifluoromethyl)pyridin-2-yl]oxy}octahydro-7H-pyrrolo[1,2-a][1,4]diazepin-7-one]
21 | 1830 | O=C1CCN(S(=O)(=O)c2cccc(C(F)(F)F)c2)C[C@@H]2C[C@@H](Oc3cnc(C4CC4)cn3)CN12 [Example 28, (8R,9aS)-8-[(5-cyclopropylpyrazin-2-yl)oxy]-2-{[3-(trifluoromethyl)phenyl]sulfonyl}octahydro-5H-pyrrolo[1,2-a][1,4]diazepin-5-one]
22 | 600 | O=C1CCN(S(=O)(=O)c2cccc(C(F)(F)F)c2)C[C@@H]2C[C@@H](Oc3ccc(C(F)(F)F)cn3)CN12 [Example 31, (8R,9aS)-2-{[3-(trifluoromethyl)phenyl]sulfonyl}-8-{[5-(trifluoromethyl)pyridin-2-yl]oxy}octahydro-5H-pyrrolo[1,2-a][1,4]diazepin-5-one]
23 | 1760 | O=C1[C@@H](Oc2ccc(C(F)(F)F)cn2)C[C@H]2CN(S(=O)(=O)c3ccc(C(F)(F)F)cc3)CCCN12 [Example 5, (8S,9aS)-2-{[4-(trifluoromethyl)phenyl]sulfonyl}-8-{[5-(trifluoromethyl)pyridin-2-yl]oxy}octahydro-7H-pyrrolo[1,2-a][1,4]diazepin-7-one]
24 | 620 | O=C1CCN(Cc2cccc(C(F)(F)F)c2)C[C@@H]2C[C@@H](Oc3ccc(C(F)(F)F)cn3)CN12 [Example 45, (8R,9aS)-2-[3-(trifluoromethyl)benzyl]-8-{[5-(trifluoromethyl)pyridin-2-yl]oxy}octahydro-5H-pyrrolo[1,2-a][1,4]diazepin-5-one]
25 | 490 | O=C1CCN(S(=O)(=O)c2ccc(C(F)(F)F)cc2)C[C@@H]2C[C@@H](Oc3cnc(C4CC4)cn3)CN12 [Example 29, (8R,9aS)-8-[(5-cyclopropylpyrazin-2-yl)oxy]-2-{[4-(trifluoromethyl)phenyl]sulfonyl}octahydro-5H-pyrrolo[1,2-a][1,4]diazepin-5-one]
26 | 1200 | O=C1CCN(S(=O)(=O)c2ccc(C(F)(F)F)cc2)C[C@@H]2C[C@H](Oc3cnc(C4CC4)cn3)CN12 [Example 61, (8S,9aS)-8-[(5-cyclopropylpyrazin-2-yl)oxy]-2-{[4-(trifluoromethyl)phenyl]sulfonyl}octahydro-5H-pyrrolo[1,2-a][1,4]diazepin-5-one]
